The molecules below were run on Digitaria sanguinalis (assay: Weeding effect in post-emergence stage). Conditions: Dose 15 g/ha; level of fresh weight growth control rate.
Assay type: in vivo
In short: (§1)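 Compound, dissolved in acetone and diluted in water with Tween 80 plus methyl oleate EC (1.5 liter/ha), is sprayed onto 2-3 leaf potted plants. Rates span 7.5–500 g/ha. After 3 weeks of greenhouse culture, weeding effect is counted as the mean of triplicates.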

How did the “Weeding effect in post-emergence stage, Digitaria sanguinalis” value (from here on “Weeding effect … Digitaria sanguinalis”) turn out when `CC(O/N=C/c1cc(-n2c(=O)cc(C(F)(F)F)n(C)c2=O)c(F)cc1Cl)C(=O)Oc1ccccc1` (stereo not drawn) [Compound 262] was run?
The value was 5 (Level 5: growth control rate is above 85%).

Which “Weeding effect … Digitaria sanguinalis” value does the source give for `CC(O/N=C/c1cc(-n2c(=O)cc(C(F)(F)F)n(C)c2=O)c(F)cc1Cl)C(=O)OCC1CCCO1` (stereo not drawn) [Compound 264] here?
Its value is 5 (Level 5: growth control rate is above 85%).

How did the “Weeding effect … Digitaria sanguinalis” value turn out when `CC(O/N=C/c1cc(-n2c(=O)cc(C(F)(F)F)n(C)c2=O)c(F)cc1Cl)C(=O)OCc1ccccc1` (stereo not drawn) [Compound 283] was run?
Its value is 5 (Level 5: growth control rate is above 85%).

For `CC(O/N=C/c1cc(-n2c(=O)cc(C(F)(F)F)n(C)c2=O)c(F)cc1Cl)C(=O)OCc1ccccc1F` (stereo not drawn) [Compound 284], which “Weeding effect … Digitaria sanguinalis” value is on record?
Its value is 5 (Level 5: growth control rate is above 85%).

With `CC(O/N=C/c1cc(-n2c(=O)cc(C(F)(F)F)n(C)c2=O)c(F)cc1Cl)C(=O)OCc1ccccn1` (stereo not drawn) [Compound 301] as the molecule, how does the “Weeding effect … Digitaria sanguinalis” value read?
The value was 5 (Level 5: growth control rate is above 85%).

For `CC(O/N=C/c1cc(-n2c(=O)cc(C(F)(F)F)n(C)c2=O)c(F)cc1Cl)C(=O)OCc1cccnc1` (stereo not drawn) [Compound 302], which “Weeding effect … Digitaria sanguinalis” value is on record?
The value was 5 (Level 5: growth control rate is above 85%).

Which “Weeding effect … Digitaria sanguinalis” value does the source give for `CC(O/N=C/c1cc(-n2c(=O)cc(C(F)(F)F)n(C)c2=O)c(F)cc1Cl)C(=O)OCc1ccncc1` (stereo not drawn) [Compound 303] here?
Its value is 5 (Level 5: growth control rate is above 85%).

Each molecule was assayed on Setaria viridis (assay: Weeding effect in post-emergence stage). Conditions: Dose 15 g/ha; level of fresh weight growth control rate.
Assay type: in vivo
In short: as §1

For `CC(O/N=C/c1cc(-n2c(=O)cc(C(F)(F)F)n(C)c2=O)c(F)cc1Cl)C(=O)Oc1ccccc1` (stereo not drawn) [Compound 262], which “Weeding effect in post-emergence stage, Setaria viridis” value (“Weeding effect … Setaria viridis” for short) is on record?
The value was 5 (Level 5: growth control rate is above 85%).

With `CC(O/N=C/c1cc(-n2c(=O)cc(C(F)(F)F)n(C)c2=O)c(F)cc1Cl)C(=O)OCC1CCCO1` (stereo not drawn) [Compound 264] as the molecule, how does the “Weeding effect … Setaria viridis” value read?
Its value is 5 (Level 5: growth control rate is above 85%).

For `CC(O/N=C/c1cc(-n2c(=O)cc(C(F)(F)F)n(C)c2=O)c(F)cc1Cl)C(=O)OCc1ccccc1` (stereo not drawn) [Compound 283], which “Weeding effect … Setaria viridis” value is on record?
Its value is 5 (Level 5: growth control rate is above 85%).

For `CC(O/N=C/c1cc(-n2c(=O)cc(C(F)(F)F)n(C)c2=O)c(F)cc1Cl)C(=O)OCc1ccccc1F` (stereo not drawn) [Compound 284], which “Weeding effect … Setaria viridis” value is on record?
The value was 5 (Level 5: growth control rate is above 85%).

How did the “Weeding effect … Setaria viridis” value turn out when `CC(O/N=C/c1cc(-n2c(=O)cc(C(F)(F)F)n(C)c2=O)c(F)cc1Cl)C(=O)OCc1ccccn1` (stereo not drawn) [Compound 301] was run?
Its value is 5 (Level 5: growth control rate is above 85%).

For `CC(O/N=C/c1cc(-n2c(=O)cc(C(F)(F)F)n(C)c2=O)c(F)cc1Cl)C(=O)OCc1cccnc1` (stereo not drawn) [Compound 302], which “Weeding effect … Setaria viridis” value is on record?
Its value is 5 (Level 5: growth control rate is above 85%).

How did the “Weeding effect … Setaria viridis” value turn out when `CC(O/N=C/c1cc(-n2c(=O)cc(C(F)(F)F)n(C)c2=O)c(F)cc1Cl)C(=O)OCc1ccncc1` (stereo not drawn) [Compound 303] was run?
The value was 5 (Level 5: growth control rate is above 85%).

What follows are molecules tested on Abutilon theophrasti (assay: Weeding effect in post-emergence stage). Conditions: Dose 15 g/ha; level of fresh weight growth control rate.
Assay type: in vivo
In short: as §1

How did the “Weeding effect in post-emergence stage, Abutilon theophrasti” value (shortened to “Weeding effect … Abutilon theophrasti”) turn out when `CC(O/N=C/c1cc(-n2c(=O)cc(C(F)(F)F)n(C)c2=O)c(F)cc1Cl)C(=O)Oc1ccccc1` (stereo not drawn) [Compound 262] was run?
The value was 5 (Level 5: growth control rate is above 85%).

`CC(O/N=C/c1cc(-n2c(=O)cc(C(F)(F)F)n(C)c2=O)c(F)cc1Cl)C(=O)OCC1CCCO1` (stereo not drawn) [Compound 264] was tested. Which “Weeding effect … Abutilon theophrasti” value did it give?
Its value is 5 (Level 5: growth control rate is above 85%).

With `CC(O/N=C/c1cc(-n2c(=O)cc(C(F)(F)F)n(C)c2=O)c(F)cc1Cl)C(=O)OCc1ccccc1` (stereo not drawn) [Compound 283] as the molecule, how does the “Weeding effect … Abutilon theophrasti” value read?
Its value is 5 (Level 5: growth control rate is above 85%).

With `CC(O/N=C/c1cc(-n2c(=O)cc(C(F)(F)F)n(C)c2=O)c(F)cc1Cl)C(=O)OCc1ccccc1F` (stereo not drawn) [Compound 284] as the molecule, how does the “Weeding effect … Abutilon theophrasti” value read?
Its value is 5 (Level 5: growth control rate is above 85%).

`CC(O/N=C/c1cc(-n2c(=O)cc(C(F)(F)F)n(C)c2=O)c(F)cc1Cl)C(=O)OCc1ccccn1` (stereo not drawn) [Compound 301] was tested. Which “Weeding effect … Abutilon theophrasti” value did it give?
The value was 5 (Level 5: growth control rate is above 85%).

How did the “Weeding effect … Abutilon theophrasti” value turn out when `CC(O/N=C/c1cc(-n2c(=O)cc(C(F)(F)F)n(C)c2=O)c(F)cc1Cl)C(=O)OCc1cccnc1` (stereo not drawn) [Compound 302] was run?
The value was 5 (Level 5: growth control rate is above 85%).

With `CC(O/N=C/c1cc(-n2c(=O)cc(C(F)(F)F)n(C)c2=O)c(F)cc1Cl)C(=O)OCc1ccncc1` (stereo not drawn) [Compound 303] as the molecule, how does the “Weeding effect … Abutilon theophrasti” value read?
The value was 5 (Level 5: growth control rate is above 85%).

Each molecule was assayed on Alopecurus japonicus (assay: Weeding effect in post-emergence stage). Conditions: Dose 15 g/ha; level of fresh weight growth control rate.
Assay type: in vivo
In short: as §1

With `CC(O/N=C/c1cc(-n2c(=O)cc(C(F)(F)F)n(C)c2=O)c(F)cc1Cl)C(=O)Oc1ccccc1` (stereo not drawn) [Compound 262] as the molecule, how does the “Weeding effect in post-emergence stage, Alopecurus japonicus” value (“Weeding effect … Alopecurus japonicus” for short) read?
Its value is 5 (Level 5: growth control rate is above 85%).

`CC(O/N=C/c1cc(-n2c(=O)cc(C(F)(F)F)n(C)c2=O)c(F)cc1Cl)C(=O)OCC1CCCO1` (stereo not drawn) [Compound 264] was tested. Which “Weeding effect … Alopecurus japonicus” value did it give?
Its value is 5 (Level 5: growth control rate is above 85%).

`CC(O/N=C/c1cc(-n2c(=O)cc(C(F)(F)F)n(C)c2=O)c(F)cc1Cl)C(=O)OCc1ccccc1` (stereo not drawn) [Compound 283] was tested. Which “Weeding effect … Alopecurus japonicus” value did it give?
The value was 5 (Level 5: growth control rate is above 85%).

With `CC(O/N=C/c1cc(-n2c(=O)cc(C(F)(F)F)n(C)c2=O)c(F)cc1Cl)C(=O)OCc1ccccc1F` (stereo not drawn) [Compound 284] as the molecule, how does the “Weeding effect … Alopecurus japonicus” value read?
Its value is 5 (Level 5: growth control rate is above 85%).

Which “Weeding effect … Alopecurus japonicus” value does the source give for `CC(O/N=C/c1cc(-n2c(=O)cc(C(F)(F)F)n(C)c2=O)c(F)cc1Cl)C(=O)OCc1ccccn1` (stereo not drawn) [Compound 301] here?
Its value is 5 (Level 5: growth control rate is above 85%).

With `CC(O/N=C/c1cc(-n2c(=O)cc(C(F)(F)F)n(C)c2=O)c(F)cc1Cl)C(=O)OCc1cccnc1` (stereo not drawn) [Compound 302] as the molecule, how does the “Weeding effect … Alopecurus japonicus” value read?
Its value is 5 (Level 5: growth control rate is above 85%).

With `CC(O/N=C/c1cc(-n2c(=O)cc(C(F)(F)F)n(C)c2=O)c(F)cc1Cl)C(=O)OCc1ccncc1` (stereo not drawn) [Compound 303] as the molecule, how does the “Weeding effect … Alopecurus japonicus” value read?
The value was 5 (Level 5: growth control rate is above 85%).

What follows are molecules tested on Eleusine indica (assay: Weeding effect in post-emergence stage). Conditions: Dose 15 g/ha; level of fresh weight growth control rate.
Assay type: in vivo
In short: as §1

Which “Weeding effect in post-emergence stage, Eleusine indica” value (“Weeding effect … Eleusine indica” below) does the source give for `CC(O/N=C/c1cc(-n2c(=O)cc(C(F)(F)F)n(C)c2=O)c(F)cc1Cl)C(=O)Oc1ccccc1` (stereo not drawn) [Compound 262] here?
The value was 5 (Level 5: growth control rate is above 85%).

How did the “Weeding effect … Eleusine indica” value turn out when `CC(O/N=C/c1cc(-n2c(=O)cc(C(F)(F)F)n(C)c2=O)c(F)cc1Cl)C(=O)OCC1CCCO1` (stereo not drawn) [Compound 264] was run?
The value was 5 (Level 5: growth control rate is above 85%).

`CC(O/N=C/c1cc(-n2c(=O)cc(C(F)(F)F)n(C)c2=O)c(F)cc1Cl)C(=O)OCc1ccccc1` (stereo not drawn) [Compound 283] was tested. Which “Weeding effect … Eleusine indica” value did it give?
The value was 5 (Level 5: growth control rate is above 85%).

For `CC(O/N=C/c1cc(-n2c(=O)cc(C(F)(F)F)n(C)c2=O)c(F)cc1Cl)C(=O)OCc1ccccc1F` (stereo not drawn) [Compound 284], which “Weeding effect … Eleusine indica” value is on record?
Its value is 5 (Level 5: growth control rate is above 85%).

Which “Weeding effect … Eleusine indica” value does the source give for `CC(O/N=C/c1cc(-n2c(=O)cc(C(F)(F)F)n(C)c2=O)c(F)cc1Cl)C(=O)OCc1ccccn1` (stereo not drawn) [Compound 301] here?
Its value is 5 (Level 5: growth control rate is above 85%).

`CC(O/N=C/c1cc(-n2c(=O)cc(C(F)(F)F)n(C)c2=O)c(F)cc1Cl)C(=O)OCc1cccnc1` (stereo not drawn) [Compound 302] was tested. Which “Weeding effect … Eleusine indica” value did it give?
The value was 5 (Level 5: growth control rate is above 85%).

With `CC(O/N=C/c1cc(-n2c(=O)cc(C(F)(F)F)n(C)c2=O)c(F)cc1Cl)C(=O)OCc1ccncc1` (stereo not drawn) [Compound 303] as the molecule, how does the “Weeding effect … Eleusine indica” value read?
The value was 5 (Level 5: growth control rate is above 85%).

The molecules below were run on Echinochloa crusgalli (assay: Weeding effect in post-emergence stage). Conditions: Dose 15 g/ha; level of fresh weight growth control rate.
Assay type: in vivo
In short: as §1

Which “Weeding effect in post-emergence stage, Echinochloa crusgalli” value (from here on “Weeding effect … Echinochloa crusgalli”) does the source give for `CC(O/N=C/c1cc(-n2c(=O)cc(C(F)(F)F)n(C)c2=O)c(F)cc1Cl)C(=O)Oc1ccccc1` (stereo not drawn) [Compound 262] here?
Its value is 5 (Level 5: growth control rate is above 85%).

How did the “Weeding effect … Echinochloa crusgalli” value turn out when `CC(O/N=C/c1cc(-n2c(=O)cc(C(F)(F)F)n(C)c2=O)c(F)cc1Cl)C(=O)OCC1CCCO1` (stereo not drawn) [Compound 264] was run?
Its value is 5 (Level 5: growth control rate is above 85%).

For `CC(O/N=C/c1cc(-n2c(=O)cc(C(F)(F)F)n(C)c2=O)c(F)cc1Cl)C(=O)OCc1ccccc1` (stereo not drawn) [Compound 283], which “Weeding effect … Echinochloa crusgalli” value is on record?
Its value is 5 (Level 5: growth control rate is above 85%).

Which “Weeding effect … Echinochloa crusgalli” value does the source give for `CC(O/N=C/c1cc(-n2c(=O)cc(C(F)(F)F)n(C)c2=O)c(F)cc1Cl)C(=O)OCc1ccccc1F` (stereo not drawn) [Compound 284] here?
Its value is 5 (Level 5: growth control rate is above 85%).

With `CC(O/N=C/c1cc(-n2c(=O)cc(C(F)(F)F)n(C)c2=O)c(F)cc1Cl)C(=O)OCc1ccccn1` (stereo not drawn) [Compound 301] as the molecule, how does the “Weeding effect … Echinochloa crusgalli” value read?
Its value is 5 (Level 5: growth control rate is above 85%).

Which “Weeding effect … Echinochloa crusgalli” value does the source give for `CC(O/N=C/c1cc(-n2c(=O)cc(C(F)(F)F)n(C)c2=O)c(F)cc1Cl)C(=O)OCc1cccnc1` (stereo not drawn) [Compound 302] here?
The value was 5 (Level 5: growth control rate is above 85%).

How did the “Weeding effect … Echinochloa crusgalli” value turn out when `CC(O/N=C/c1cc(-n2c(=O)cc(C(F)(F)F)n(C)c2=O)c(F)cc1Cl)C(=O)OCc1ccncc1` (stereo not drawn) [Compound 303] was run?
The value was 5 (Level 5: growth control rate is above 85%).
